Reference: ChEMBL document CHEMBL5724914, “Linking interpersonal differences in gut microbiota composition and drug biotransformation activity” (2024)

How the values were obtained:
[1] = human gut metagenome, 24 h, 2 µM
[2] = (§1) The drug is tested on Z-009 corresponding to pig gut metagenome with ENA study accession number: PRJEB37062 and ENA sample accession number: ERS12561809 for biotransformation under anaerobic condition. The drug concentrations were measured over 9 timepoints collected between 0 and 24 hours of incubation by liquid-chromatography-coupled mass spectrometry (LC–MS); conditions: 2 µM
[3] = as §1, with “WLS-082” for “Z-009”, “human” for “pig”, “ERS12561751” for “ERS12561809”; conditions: 2 µM
[4] = as §1, with “Z-027” for “Z-009”, “to” for “to pig gut”, “ERS12561826” for “ERS12561809”; conditions: 2 µM
[5] = as §1, with “Z-013” for “Z-009”, “rabbit” for “pig”, “ERS12561813” for “ERS12561809”; conditions: 2 µM
[6] = human gut metagenome, 24 h, 2 µM; remark: listed apart in the source
[7] = as §1, with “Z-001” for “Z-009”, “mouse” for “pig”, “ERS12561801” for “ERS12561809”; conditions: 2 µM
[8] = as §1, with “Z-007” for “Z-009”, “rat” for “pig”, “ERS12561807” for “ERS12561809”; conditions: 2 µM
[9] = as §1, with “WLS-006” for “Z-009”, “human” for “pig”, “ERS12561741” for “ERS12561809”; conditions: 2 µM
[10] = human gut metagenome, 24 h, 2 µM; remark: listed apart in the source
[11] = human gut metagenome, 24 h, 2 µM; remark: listed apart in the source
[12] = as §1, with “Z-020” for “Z-009”, “rabbit” for “pig”, “ERS12561819” for “ERS12561809”; conditions: 2 µM
[13] = human gut metagenome, 24 h, 2 µM; remark: listed apart in the source
[14] = as §1, with “Z-024” for “Z-009”, “ERS12561823” for “ERS12561809”; conditions: 2 µM
[15] = human gut metagenome, 24 h, 2 µM; remark: listed apart in the source
[16] = human gut metagenome, 24 h, 2 µM; remark: listed apart in the source
[17] = human gut metagenome, 24 h, 2 µM; remark: listed apart in the source
[18] = as §1, with “Z-028” for “Z-009”, “mouse” for “pig”, “ERS12561827” for “ERS12561809”; conditions: 2 µM
[19] = human gut metagenome, 24 h, 2 µM; remark: listed apart in the source
[20] = human gut metagenome, 24 h, 2 µM; remark: listed apart in the source
Note: call rule not given here.

## NS(=O)(=O)c1cc2c(cc1Cl)N=C(CSCc1ccccc1)NS2(=O)=O [BENZTHIAZIDE]
[1]
  Bacterial Biotransformation: Compound NOT metabolized
[2]
  Bacterial Biotransformation: Compound NOT metabolized
[3]
  Bacterial Biotransformation: Compound NOT metabolized
[4]
  Bacterial Biotransformation: Compound NOT metabolized
[5]
  Bacterial Biotransformation: Compound NOT metabolized
[6]
  Bacterial Biotransformation: Compound NOT metabolized
[7]
  Bacterial Biotransformation: Compound NOT metabolized
[8]
  Bacterial Biotransformation: Compound NOT metabolized
[9]
  Bacterial Biotransformation: Compound NOT metabolized
[10]
  Bacterial Biotransformation: Compound NOT metabolized
[11]
  Bacterial Biotransformation: Compound NOT metabolized
[12]
  Bacterial Biotransformation: Compound NOT metabolized
[13]
  Bacterial Biotransformation: Compound NOT metabolized
[14]
  Bacterial Biotransformation: Compound metabolized
[15]
  Bacterial Biotransformation: Compound metabolized
[16]
  Bacterial Biotransformation: Compound NOT metabolized
[17]
  Bacterial Biotransformation: Compound NOT metabolized
[18]
  Bacterial Biotransformation: Compound NOT metabolized
[19]
  Bacterial Biotransformation: Compound NOT metabolized
[20]
  Bacterial Biotransformation: Compound NOT metabolized

## CN1CCN(C(=O)O[C@H]2c3nccnc3C(=O)N2c2ccc(Cl)cn2)CC1 [ESZOPICLONE]
[1]
  Bacterial Biotransformation: Compound NOT metabolized
[2]
  Bacterial Biotransformation: Compound NOT metabolized
[3]
  Bacterial Biotransformation: Compound NOT metabolized
[4]
  Bacterial Biotransformation: Compound NOT metabolized
[5]
  Bacterial Biotransformation: Compound NOT metabolized
[6]
  Bacterial Biotransformation: Compound NOT metabolized
[7]
  Bacterial Biotransformation: Compound NOT metabolized
[8]
  Bacterial Biotransformation: Compound NOT metabolized
[9]
  Bacterial Biotransformation: Compound NOT metabolized
[10]
  Bacterial Biotransformation: Compound NOT metabolized
[11]
  Bacterial Biotransformation: Compound NOT metabolized
[12]
  Bacterial Biotransformation: Compound NOT metabolized
[13]
  Bacterial Biotransformation: Compound NOT metabolized
[14]
  Bacterial Biotransformation: Compound NOT metabolized
[15]
  Bacterial Biotransformation: Compound NOT metabolized
[16]
  Bacterial Biotransformation: Compound NOT metabolized
[17]
  Bacterial Biotransformation: Compound NOT metabolized
[18]
  Bacterial Biotransformation: Compound NOT metabolized
[19]
  Bacterial Biotransformation: Compound NOT metabolized
[20]
  Bacterial Biotransformation: Compound NOT metabolized
